Assay [1] deals with Somatostatin receptor type 3 (Homo sapiens, UniProt P32745).
Assay [2] concerns the target Somatostatin receptor type 2 (Homo sapiens, UniProt P30874).
Assay [3] deals with Somatostatin receptor type 4 (Homo sapiens, UniProt P31391).

Peptide text beside a SMILES is read from it.

Data on two compounds can be found in BindingDB's records for doi:10.1210/edrv-16-4-427 (University of Pennsylvania, 1995).

Chain of Somatostatin receptor type 3 (P32745 whole entry): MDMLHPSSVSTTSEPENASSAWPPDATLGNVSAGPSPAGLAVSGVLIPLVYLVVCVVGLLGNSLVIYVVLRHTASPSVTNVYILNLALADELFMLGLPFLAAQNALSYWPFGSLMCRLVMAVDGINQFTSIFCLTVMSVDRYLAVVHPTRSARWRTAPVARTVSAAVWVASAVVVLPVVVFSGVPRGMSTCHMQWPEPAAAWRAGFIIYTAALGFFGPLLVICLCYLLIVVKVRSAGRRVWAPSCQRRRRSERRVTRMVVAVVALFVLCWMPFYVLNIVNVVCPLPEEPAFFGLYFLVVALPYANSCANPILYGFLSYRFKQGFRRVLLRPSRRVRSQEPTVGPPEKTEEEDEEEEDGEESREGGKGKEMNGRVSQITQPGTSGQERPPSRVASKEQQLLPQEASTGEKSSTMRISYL
Chain of Somatostatin receptor type 4 (P31391 whole entry): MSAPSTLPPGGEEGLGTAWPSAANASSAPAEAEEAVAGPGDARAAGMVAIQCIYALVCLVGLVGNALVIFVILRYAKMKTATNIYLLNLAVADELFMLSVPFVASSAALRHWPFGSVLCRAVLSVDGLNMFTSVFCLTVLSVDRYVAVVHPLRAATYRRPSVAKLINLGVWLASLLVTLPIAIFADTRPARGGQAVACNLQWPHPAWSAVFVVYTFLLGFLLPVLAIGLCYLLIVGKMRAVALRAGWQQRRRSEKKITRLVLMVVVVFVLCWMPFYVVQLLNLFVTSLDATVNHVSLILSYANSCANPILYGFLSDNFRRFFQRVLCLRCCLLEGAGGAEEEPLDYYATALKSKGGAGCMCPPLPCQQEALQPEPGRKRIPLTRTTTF
Chain of Somatostatin receptor type 2 (P30874 whole entry): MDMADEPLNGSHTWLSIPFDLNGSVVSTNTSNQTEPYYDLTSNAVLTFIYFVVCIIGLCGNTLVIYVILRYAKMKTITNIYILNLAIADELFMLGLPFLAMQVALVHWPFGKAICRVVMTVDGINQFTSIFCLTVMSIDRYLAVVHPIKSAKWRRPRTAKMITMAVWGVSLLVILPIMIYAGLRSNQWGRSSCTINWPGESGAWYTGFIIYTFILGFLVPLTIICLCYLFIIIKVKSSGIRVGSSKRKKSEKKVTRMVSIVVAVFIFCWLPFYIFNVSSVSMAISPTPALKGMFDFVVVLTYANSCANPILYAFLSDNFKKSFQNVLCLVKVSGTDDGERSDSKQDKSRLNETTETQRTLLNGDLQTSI

The term Ki denotes a dissociation constant, usually derived from enzyme kinetics or from competition with a known ligand. Low readings indicate higher affinity, high ones lower affinity. As to `C[C@@H](O)[C@@H]1NC(=O)[C@H](Cc2ccc(O)cc2)NC(=O)[C@H]([C@@H](C)O)NC(=O)[C@H](CCCCN)NC(=O)[C@H](Cc2c[nH]c3ccccc23)NC(=O)[C@H](Cc2ccccc2)NC(=O)[C@H](Cc2ccccc2)NC(=O)[C@H](CC(N)=O)NC(=O)[C@H](CCCCN)NC(=O)CCCCC[C@@H](C(=O)O)NC(=O)[C@H](CO)NC1=O` [CGP-23996] (HELM PEPTIDE1{K.N.F.F.W.K.T.Y.T.S.[O=C(O)[C@H](CCCCCC(=O)[*:3])N[*:1]]}$PEPTIDE1,PEPTIDE1,1:R1-11:R3$$$V2.0), the results for the Ki in assay [1], in assay [2] and in assay [3] were 0.6 nM, 1 nM and 4.7 nM, respectively.
Regarding `CC(C)[C@@H]1NC(=O)[C@H](CCCCN)NC(=O)[C@@H](Cc2c[nH]c3ccccc23)NC(=O)[C@H](Cc2ccc(O)cc2)NC(=O)[C@H](C)N(C)C(=O)[C@H](Cc2ccccc2)NC1=O` [CAS_3086456], the Ki in assay [1] was 268 nM.
